Counter-ions that a name gives are not always drawn.
Conditions: 25° C./60% relative humidity for 3 months
Method: • HPLC method: • Column: Kromasil C18, 250×4.6 mm, 5 μm • Mobile phase: • A: 388.5 ml of acetonitrile+31.5 ml of tetrahydrofuran++580 ml of 0.05 molar ammonium dihydrogen orthophosphate solution in water • B: 92.5 ml of acetonitrile+7.5 ml of tetrahydrofuran+300 of methanol++100 ml of 0.05 molar ammonium dihydrogen orthophosphate solution in water • Gradient:

CC(C)c1c(C(=O)Nc2ccccc2)c(-c2ccccc2)c(-c2ccc(F)cc2)n1CC[C@@H](O)C[C@@H](O)CC(=O)O (relative stereo) [amorphous atorvastatin calcium, [R—(R*,R*)]-2-(4-fluorophenyl)-β,δ-dihydroxy-5-(1-methylethyl)-3-phenyl-4-[(phenylamino)carbonyl]-1H-pyrrole-1-heptanoic acid, calcium salt (2:1)]
Total impurities and/or degradants after storage: not more than 1.0%
